According to the supplement of paper PMC10307832:

How the values were obtained:
Test in all cases: relative viability (nuclei count vs DMSO), 5 days (fraction); higher = more cells survive
Quizartinib + Olaparib = compound: CC(C)(C)c1cc(NC(=O)Nc2ccc(-c3cn4c(n3)sc3cc(OCCN5CCOCC5)ccc34)cc2)no1 [Quizartinib] + O=C(c1cc(Cc2n[nH]c(=O)c3ccccc23)ccc1F)N1CCN(C(=O)C2CC2)CC1 [Olaparib] (partner 8 µM)
In short: (§1)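 Relative viability divides the nuclei count in treated wells by that in vehicle wells. Lung cancer cell lines were seeded in 1536-well plates, dosed by pin tool the next day, and fixed and stained after 5 days in one step with final 0.05% Triton X-100, 1% formaldehyde and 1 ug/ml Hoechst. Dosing was a single drug or a fixed anchor-drug dose plus five library-drug doses (not always all listed) in √10 steps, and values are medians of duplicate plates imaged at 4×.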

YM155 + Pictilisib = compound: COCC[n+]1c2c(n(Cc3cnccn3)c1C)C(=O)c1ccccc1C2=O [YM155] + CS(=O)(=O)N1CCN(Cc2cc3nc(-c4cccc5[nH]ncc45)nc(N4CCOCC4)c3s2)CC1 [Pictilisib] (partner 1 µM)
In short: as §1

YM155 + Vorinostat = compound: COCC[n+]1c2c(n(Cc3cnccn3)c1C)C(=O)c1ccccc1C2=O [YM155] + O=C(CCCCCCC(=O)Nc1ccccc1)NO [Vorinostat] (partner 1 µM)
In short: as §1

Quizartinib + Pemetrexed = compound: CC(C)(C)c1cc(NC(=O)Nc2ccc(-c3cn4c(n3)sc3cc(OCCN5CCOCC5)ccc34)cc2)no1 [Quizartinib] + Nc1nc2[nH]cc(CCc3ccc(C(=O)N[C@@H](CCC(=O)O)C(=O)O)cc3)c2c(=O)[nH]1 [Pemetrexed] (partner 0.2 µM)
In short: as §1

| Cell Line | relative viability (Quizartinib + Olaparib; first compound 0.001 µM) | relative viability (Quizartinib + Olaparib; first compound 0.003162 µM) | relative viability (Quizartinib + Olaparib; first compound 0.01 µM) | relative viability (Quizartinib + Olaparib; first compound 0.03162 µM) | relative viability (Quizartinib + Olaparib; first compound 0.1 µM) | relative viability (YM155 + Pictilisib; first compound 0.002 µM) | relative viability (YM155 + Pictilisib; first compound 0.006325 µM) | relative viability (YM155 + Pictilisib; first compound 0.02 µM) | relative viability (YM155 + Pictilisib; first compound 0.06325 µM) | relative viability (YM155 + Vorinostat; first compound 0.002 µM) | relative viability (YM155 + Vorinostat; first compound 0.006325 µM) | relative viability (YM155 + Vorinostat; first compound 0.02 µM) | relative viability (YM155 + Vorinostat; first compound 0.06325 µM) | relative viability (Quizartinib + Pemetrexed; first compound 0.001 µM) | relative viability (Quizartinib + Pemetrexed; first compound 0.003162 µM) | relative viability (Quizartinib + Pemetrexed; first compound 0.01 µM) | relative viability (Quizartinib + Pemetrexed; first compound 0.03162 µM) | relative viability (Quizartinib + Pemetrexed; first compound 0.1 µM) |
| --- | --- | --- | --- | --- | --- | --- | --- | --- | --- | --- | --- | --- | --- | --- | --- | --- | --- | --- |
| LU99A | 0.253 | 0.251 | 0.293 | 0.276 | 0.238 | 0.354 | 0.335 | 0.315 | 0.284 | 0.508 | 0.419 | 0.514 | 0.441 | 0.206 | 0.189 | 0.179 | 0.189 | 0.183 |
| EKVX | – | 0.821 | 0.886 | 0.904 | 1.01 | 0.422 | 0.497 | 0.439 | 0.339 | 0.767 | 0.793 | 0.671 | 0.725 | – | 0.363 | 0.434 | 0.39 | 0.351 |
| LC-2-ad | 0.697 | 0.635 | 0.757 | 0.747 | 0.86 | 0.455 | 0.586 | 0.568 | 0.452 | 0.682 | 0.637 | 0.705 | 0.65 | 0.275 | 0.285 | 0.268 | 0.269 | 0.233 |
| EBC-1 | 0.732 | 0.68 | 0.803 | 0.626 | 0.754 | 0.436 | 0.345 | 0.459 | 0.339 | – | – | – | – | – | – | – | – | – |
| PC-14 | 0.263 | 0.26 | 0.252 | 0.184 | 0.318 | 0.648 | 0.717 | 0.693 | 0.536 | 0.669 | 0.694 | 0.779 | 0.252 | 0.134 | 0.143 | 0.13 | – | 0.162 |
